Measurements reported in patent US10117430B2, “Malononitrile compounds for controlling animal pests” (BASF SE, priority 2012, dated 2018).

Columns and labels:
Type in all cases: in vivo
[1] = tested on: Rice brown plant hopper (Nilaparvata lugens); assay: B.11 Rice brown plant hopper test on sprayed rice seedlings; settings: in comparison with untreated controls, after 72 hours
Procedure, shortened: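 Compounds formulated in 50:50 acetone:water with 0.1% vol/vol surfactant and sprayed onto potted rice seedlings. Air-dried plants were caged, infested with 10 adults and held at about 28-29 °C, 50-60% RH. Percent mortality scored after 72 hours.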

[2] = tested on: Vetch Aphid (Megoura viciae); assay: B.7 Vetch aphid test on broad bean leaf disks; settings: foliar, 120 h, in comparison with untreated controls, 5 days
Procedure, shortened: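 Broad bean leaf disks sprayed with compounds in 25% DMSO/75% water at several concentrations, two replicates, then air-dried. Infested with 5-8 adult Megoura viciae and held 5 days at about 23±1 °C and 50±5% RH. Mortality and fecundity scored visually.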

[3] = tested on: Yellow Fever Mosquito (Aedes aegypti); assay: whole plant or invertebrate; settings: 48 h, in comparison with untreated controls, larval mortality after 2 days
Procedure, shortened: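 Freshly hatched larvae (5-15 per well) in 200 μl tap water; compounds formulated in 75% water/25% DMSO and sprayed at 2.5 μl per well at several concentrations, two replicates. Incubated 2 days at 28±1° C., 80±5% RH; larval mortality scored visually.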

[4] = tested on: Boll Weevil (Anthonomus grandis); assay: B.9 Boll weevil microtiter diet test, egg and larval mortality; settings: 120 h, in comparison with untreated controls, egg and larval mortality after 5 days
Procedure, shortened: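 Insect diet carrying 20-30 A. grandis eggs per well was sprayed with compounds formulated in 75% water/25% DMSO, at various concentrations with two replicates. Plates were held at about 23±1° C and 50±5% RH for 5 days. Egg and larval mortality were then scored visually.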

[5] = tested on: Silverleaf Whitefly (Bemisia argentifolii); assay: B.5 Silverleaf whitefly test on sprayed cotton plants; settings: 72 h, in comparison with untreated controls, 3 days after treatment
Procedure, shortened: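 Cotyledon-stage cotton plants were electrostatically sprayed with compound diluted from a 10,000 ppm cyclohexanone stock into 50% acetone/water with 0.01% nonionic surfactant. After drying, 10–12 adult whiteflies (3–5 days old) were released onto each plant. Mortality was scored after 3 days at 25 °C and 20–40% RH against untreated plants.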

[6] = tested on: Orchid Thrips (Dichromothrips corbetti); assay: B.4 Orchid thrips floral-immersion test; settings: 96 h, in comparison with untreated controls, after 4 days
Procedure, shortened: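 Orchid flowers dipped in 300 ppm compound (acetone:water 1:1, 0.01% surfactant), dried, then caged with 10-15 adult D. corbetti from a lab colony. Held under continuous light at about 28° C. Live thrips counted after 4 days; mortality extrapolated from pre-treatment numbers.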

[7] = tested on: Southern Armyworm (Spodoptera eridania); assay: B.6 Southern armyworm test on sprayed lima bean plants; settings: 96 h, 500 ppm, in comparison with untreated controls, 4 days after treatment
Procedure, shortened: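 Lima bean plants at the 1st true leaf stage were sprayed with cyclohexanone-based solutions diluted in 50% acetone/water with 0.01% nonionic surfactant. Once dry, plants were bagged with 10–11 larvae and held at 25 °C and 20–40% RH. Mortality and reduced feeding were scored at 4 days against untreated plants.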

N#CC(C#N)(Cc1ccc(C(F)(F)F)nc1)c1cc(F)cc(F)c1 [II-34]
≥ 75%: mortality at 300 ppm [1] | mortality at 2500 ppm [2] | mortality at 2500 ppm [3] | mortality at 2500 ppm [4] | mortality at 500 ppm [5] | mortality at 500 ppm [6] | mortality at 500 ppm [7]
